Data as given in publication PMC11811597, “Phenomics‐Based Discovery of Novel Orthosteric Choline Kinase Inhibitors” (Angewandte Chemie (International Ed. in English), 2025).

Experiments:
EHMT1 = target: T1, EHMT1 (Homo sapiens, UniProt Q9H9B1); assay: Competitive affinity-based chemoproteomics (UNC0965 matrix), PBMC cell extract; type: binding; settings: 20 µM competitor; for FC vs DMSO (log2 competition), EHMT1: n=2
T1 construct: endogenous in cells; host or cells: PBMC from healthy blood donors, cell extract
T1 sequence (Q9H9B1 1-1298): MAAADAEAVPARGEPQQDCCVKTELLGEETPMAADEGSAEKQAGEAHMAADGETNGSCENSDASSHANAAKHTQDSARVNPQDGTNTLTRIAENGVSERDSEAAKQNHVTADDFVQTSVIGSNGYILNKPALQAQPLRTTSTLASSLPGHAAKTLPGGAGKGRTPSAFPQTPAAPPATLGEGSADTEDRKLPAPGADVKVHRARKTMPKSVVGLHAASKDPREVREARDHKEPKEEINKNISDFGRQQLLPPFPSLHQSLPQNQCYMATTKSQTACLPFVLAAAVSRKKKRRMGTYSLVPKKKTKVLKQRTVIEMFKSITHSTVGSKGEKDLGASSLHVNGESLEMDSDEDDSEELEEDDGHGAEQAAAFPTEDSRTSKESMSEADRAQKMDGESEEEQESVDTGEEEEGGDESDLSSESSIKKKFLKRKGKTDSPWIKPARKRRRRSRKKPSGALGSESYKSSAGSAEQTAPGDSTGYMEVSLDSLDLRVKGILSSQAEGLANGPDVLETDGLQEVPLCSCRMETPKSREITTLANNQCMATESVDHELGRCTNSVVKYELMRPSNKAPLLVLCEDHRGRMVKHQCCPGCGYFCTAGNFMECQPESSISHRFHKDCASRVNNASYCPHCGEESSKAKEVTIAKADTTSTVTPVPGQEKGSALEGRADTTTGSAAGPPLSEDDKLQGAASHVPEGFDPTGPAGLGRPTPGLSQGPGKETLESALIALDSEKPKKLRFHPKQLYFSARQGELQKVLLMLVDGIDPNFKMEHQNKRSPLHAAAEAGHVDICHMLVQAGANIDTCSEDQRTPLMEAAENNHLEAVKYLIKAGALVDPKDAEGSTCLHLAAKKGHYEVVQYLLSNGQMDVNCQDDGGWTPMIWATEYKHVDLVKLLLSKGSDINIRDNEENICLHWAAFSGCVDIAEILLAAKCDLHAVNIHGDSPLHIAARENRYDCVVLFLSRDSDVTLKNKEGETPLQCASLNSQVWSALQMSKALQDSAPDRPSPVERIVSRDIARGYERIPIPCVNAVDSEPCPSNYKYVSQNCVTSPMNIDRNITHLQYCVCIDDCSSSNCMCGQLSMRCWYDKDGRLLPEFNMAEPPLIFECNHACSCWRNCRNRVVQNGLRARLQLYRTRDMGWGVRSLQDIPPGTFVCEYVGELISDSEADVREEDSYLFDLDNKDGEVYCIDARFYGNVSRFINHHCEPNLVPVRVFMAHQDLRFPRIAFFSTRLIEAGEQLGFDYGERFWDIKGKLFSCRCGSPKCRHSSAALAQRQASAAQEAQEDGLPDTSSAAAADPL
Experimental: (§1) described.[2] Lysates were precleared with bead slurry (100 μL) for 30 min at 4 °C and then treated with UNC0638 or UNC0737 (20 μM) or DMSO control for 30 min at 4 °C followed by incubation with affinity matrix for 2 h at 4 °C. Affinity matrices were washed with buffer A (5 mL) and proteins eluted with 100 μL of 2x Laemmli sample buffer, 100 mM DTT, in PBS and heating for 10 min at 90 °C.
(§2) Eluents (70 µL) were diluted in 0.1 M Tris (pH 7.8) to 200 µL, reduced with 5 mM DTT for 30 min at RT, and alkylated with 20 mM iodoacetamide for 30 min at RT in the dark. Proteins were precipitated by sequential addition of MeOH (600 µL), CHCl3 (150 µL) and H2O (450 µL), pelleted (17,000 × g, 5 min), washed with further MeOH (2 × 600 µL), and re-pelleted. Air dried pellets were resuspended in 50 μL 6 M urea (pH 7.8) by vortexing and then diluted with 250 μL H2O before adding 1 µg trypsin for overnight incubation at 37 °C. The digests were acidified with FA (1% v/v final concentration), desalted using SOLA HRP SPE Cartridges (Thermo Fisher), eluted with 69% v/v MeCN, 0.1% v/v FA in H2O (600 μL) and dried in vacuo. Dried peptides were stored at -20 °C before resuspension in 2% v/v MeCN, 0.1% v/v FA in H2O (20 μL) for LC-MS/MS analysis.
(§3) LC-MS/MS Data Acquisition
(§4) Digested samples were analysed by nano-UPLC–MS/MS using a Dionex Ultimate 3000 nano UPLC fitted with an EASY spray column (75 μm × 500 mm, 2 μm particle size, Thermo Scientific), coupled to an Orbitrap Q Exactive instrument. A 60 min gradient of 0.1% (v/v) formic acid in 5 % (v/v) DMSO to 0.1% (v/v) formic acid with 35% (v/v) acetonitrile in 5 % (v/v) DMSO at a flow rate of 250 nL min−1 was used. The instrument was operated in a data-dependant mode, with survey scans acquired at a resolution of 70,000 at 200 m/z and the 15 most abundant precursors selected for HCD fragmentation with an AGC target of […] ions.
(§5) Raw data was processed using MaxQuant[3] version 2.0.1.0 and the reference complete human proteome FASTA file (UniProt, downloaded 05.08.21). Label Free Quantification (LFQ) and Match Between Runs were selected; Cysteine carbamidomethylation was selected as a fixed modification, and methionine oxidation and asparagine deamidation as variable modifications. Default settings for identification and quantification were used. Specifically, a minimum peptide length of 7, a maximum of 2 missed cleavage sites, and a maximum of 5 labelled amino acids per peptide were allowed.
(§6) Through selection of the ‘trypsin/P’ general setting, peptide bond cleavage at arginine or lysine (followed by any amino acid) was considered during in silico digest of the reference proteome. The allowed precursor and fragment ion mass tolerances were 4.5 ppm and 20 ppm, respectively. Peptides and proteins were identified utilizing a 0.01 false discovery rate, with “unique and razor peptides” […]
(§7) mode selected for both identification and quantification of proteins (razor peptides are uniquely assigned to protein groups and not to individual proteins).

JUP = target: T2, JUP (Homo sapiens, UniProt P14923); assay: as above; type: binding; settings: 20 µM competitor, n=2
T2 construct: endogenous in cells; host or cells: PBMC from healthy blood donors, cell extract
Experimental: as §1, §2, §3, §4, §5, §6, §7

T2 sequence (P14923 whole entry): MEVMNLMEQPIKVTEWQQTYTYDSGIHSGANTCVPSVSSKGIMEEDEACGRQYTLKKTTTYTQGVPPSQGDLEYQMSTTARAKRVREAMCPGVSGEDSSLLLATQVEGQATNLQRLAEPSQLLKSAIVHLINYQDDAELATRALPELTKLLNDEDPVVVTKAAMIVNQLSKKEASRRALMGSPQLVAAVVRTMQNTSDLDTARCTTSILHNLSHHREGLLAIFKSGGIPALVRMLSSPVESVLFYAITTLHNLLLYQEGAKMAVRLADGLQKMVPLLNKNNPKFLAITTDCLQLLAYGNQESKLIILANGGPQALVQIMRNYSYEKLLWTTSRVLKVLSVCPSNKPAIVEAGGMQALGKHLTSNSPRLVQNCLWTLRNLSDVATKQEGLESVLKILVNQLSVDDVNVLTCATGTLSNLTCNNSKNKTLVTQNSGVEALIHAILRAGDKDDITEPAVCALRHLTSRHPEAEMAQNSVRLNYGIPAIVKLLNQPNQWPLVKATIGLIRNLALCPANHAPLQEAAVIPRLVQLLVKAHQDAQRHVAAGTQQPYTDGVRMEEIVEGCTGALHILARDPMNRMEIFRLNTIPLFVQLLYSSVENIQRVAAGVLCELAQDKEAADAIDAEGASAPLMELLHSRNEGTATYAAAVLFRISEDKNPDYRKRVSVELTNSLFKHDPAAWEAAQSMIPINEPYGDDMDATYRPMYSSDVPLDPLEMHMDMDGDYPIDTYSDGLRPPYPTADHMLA

Row | SMILES | EHMT1 (GLP) binding to the matrix (EHMT1) | FC vs DMSO (log2 competition), EHMT1 (EHMT1) | FC vs DMSO (log2 competition), JUP (JUP)
1 | COc1cc2c(NC3CCN(C(C)C)CC3)nc(C3CCCCC3)nc2cc1OCCCN1CCCC1 [UNC0638] | reduced binding to the matrix | -2.05 | -1.79
2 | COc1cc2c(N(C)C3CCN(C(C)C)CC3)nc(C3CCCCC3)nc2cc1OCCCN1CCCC1 [UNC0737] | – | 0.1524 | -0.7174
